Structures can show the parent of a compound that is named as a salt. Where two headings read alike, the source gives them in different places. Where a SMILES comes first, the peptide text is derived from it.
How the values were obtained:
[1] = test system: hiPSC lines (19c3 and 23c1); assay: hiPSC growth titration assay: 1-5 passages in 12-well plates, then resazurin viability assay; details: for concentration required to maintain similar levels of proliferation: three-passage assay
Description: Each commercial medium was normalized to the DMEM/F12 levels of L-glutamine, D-glucose, sodium pyruvate, sodium bicarbonate, pH, and osmolarity (FIG. 1B). To assess the effect of basal medium on hiPSC growth, an assay was developed consisting of plating cells in 12-well plates, and growing cells for 4 days with daily medium changes, before passaging at a 1:20 ratio. This was completed for 1-5 passages followed by a cost-effective resazurin viability assay (FIG. 1C). […] This was chosen to minimize the effect of variance caused by repeated manual passaging and replating. At least two hiPSC lines were used in parallel throughout the titration process. Identified adjusted concentrations of each group, such as amino acids, was incorporated prior to beginning the next group, such as vitamins, to bring subsequent titrations as close to final formulation as possible. Once the initial full cycle of titration of all components was complete, a second full cycle of was performed to confirm the results in the final formulation. We also completed identical experiments without daily medium change to identify components and concentrations that support this protocol (FIGS. 3, 5, and 8), and to allow for development of a simplified hiPSC culture strategy.
(§1) Human induced pluripotent cell culture: BMEM consists of BMEM basal medium and BMEM supplement. […] These are added to ultrapure water and filter sterilized. BMEM supplement consists of 5 mg/mL E. coli-derived recombinant human insulin (Gibco), […] L-ascorbic acid 2-phosphate trisodium salt (AA2P, Wako), 5 mg/mL Oryza sat-iva-derived recombinant human transferrin (Optiferrin, InVitria), 20 ng/mL sodium selenite (Sigma), 40 ng/mL recombinant human FGF2-G3 (made in-house), 0.1 ng/mL recombinant human TGFb3 (E. coli-derived, Qkine), 0.1 ng/mL recombinant human NRG1 (E. coli-derived, Shenodoah Biotechnology). Cells were routinely maintained in this medium on 1:800 diluted growth factor reduced Matrigel (Corning) diluted in a BMEM basal at 2 mL per well of a 6-well plate or equivalent. Matrigel-coated plates were kept in CO2 incubators at 37° C. for up to 1 month. BMEM was supplemented with […] thiazovivin (LC Labs), hereafter referred to as BMEM-T, for the first 24 h after passage. For standard culture, cells were passaged at a ratio of 1:20 every 4 days using 0.5 mM EDTA (Invitrogen) diluted in DPBS^−/− (without Ca^2+ and Mg^2+, Corning), after achieving ˜70%-80% confluence. Cell lines were used between passages 20 and 100. Throughout, pH was adjusted immediately after making the medium at room temperature and atmospheric oxygen and carbon dioxide levels but before filter sterilization. pH was adjusted with 12 N HCl or 1 N NaOH (both from Fisher) and measured using a SevenCompact pH meter (MettlerToledo). Osmolarity was measured using an osmometer (Advanced Instruments).
Resazurin assay: Resazurin sodium salt (B21187.06, Thermo) was diluted to 5 mg/mL in sterile Milli-Q ultrapure water and 600 μL aliquots were made and stored at −20° C. One aliquot was added to 14.4 mL of water to generate a 10× stock. Stock was diluted in BMEM to 1×, and 1 mL was added to each well of a 12-well plate and incubated at 37° C. for 2.5 h. Plates were read on a Varioskan Lux (Thermo) in fluorescent mode using top read and an excitation wavelength of 560 nm and an emission wavelength of 590 nm.

[2] = 110 mM NaCl
Experimental: as §1, with “For standard culture, cells were passaged at a ratio of 1:20 every 4 days using 0.5 mM EDTA (Invitrogen) diluted in DPBS^−/− (without Ca^2+ and Mg^2+, Corning), after achieving ˜70%-80% confluence. Cell lines were used between passages 20 and 100.” left out

[3] = daily medium change, multi-passage assay, normalized to DMEM/F12

Compound	requirement of the component for hiPSC growth [1, 3]	suitable concentration compared with that in DMEM/F12 ([1]; titration, daily medium change)	further results
O=C(O)CCCC[C@@H]1CCSS1 (racemic) [lipoic acid, Lipoic acid]	superfluous		
[Ca+2].[Cl-].[Cl-] [CaCl2, Calcium chloride (CaCl2)]		could be reduced	effect of low concentrations on hiPSCs ([1]; two-passage titration): reduced the adhesion of hiPSCs to the plates
CC(C)(CO)[C@@H](O)C(=O)NCCC(=O)[O-].CC(C)(CO)[C@@H](O)C(=O)NCCC(=O)[O-].[Ca+2] [D-pantothenic acid, D-Pantothenic acid hemicalcium salt (B5)]		higher concentrations	
O=S(=O)(O)CCN1CCN(CCO)CC1 [HEPES]	superfluous		requirement of the component for hiPSC growth ([1]; no medium change): superfluous
[Cl-].[K+] [KCl, Potassium chloride (KCl)]		could be reduced	
C[C@H](N)C(=O)N[C@@H](CCC(N)=O)C(=O)O [L-alanyl-L-glutamine] (H-Ala-Gln-OH)			hiPSC growth rate compared with glutamine at the suitable concentrations ([1]; 2 mM vs 1 mM glutamine, also with no medium change): no difference; concentration required to maintain similar levels of proliferation [1]: 2 mM
O=S(=O)([O-])[O-].[Mg+2] [MgSO4, Magnesium sulfate (MgSO4)]		enhanced growth	
[Cl-].[Na+] [NaCl, Sodium chloride (NaCl)]			concentration suitable for hiPSC growth ([1]; NaCl titration in the presence of sodium bicarbonate, two-passage assay): 110 mM; osmolarity produced [2]: 295 mOsm/L
CC(=O)C(=O)[O-].[Na+] [Sodium pyruvate]	essential	slightly higher concentration	
O.O.O.O.O.O.O.O=S(=O)([O-])[O-].[Zn+2] [Zinc, Zinc sulfate heptahydrate (ZnSO4•7H2O)]	not shown to be essential		improvement of hiPSC growth ([1]; two-passage assay): approximately 10%
O=C(O)CCCC[C@@H]1SC[C@@H]2NC(=O)N[C@@H]21 [biotin, Biotin (B7)]		sufficient at concentrations lower than those in DMEM/F12	
O.O.O.O.O.O=S(=O)([O-])[O-].[Cu+2] [copper, Copper(II) sulfate pentahydrate (CuSO4•5H2O)]	No advantage		concentration at which toxic to hiPSCs [1]: > 100 µM
N[C@@H](CS)C(=O)O [cysteine, L-Cysteine HCl•H2O]	can replace the cystine and cysteine combination		
Nc1nc(=O)c2nc(CNc3ccc(C(=O)N[C@@H](CCC(=O)O)C(=O)O)cc3)cnc2[nH]1 [folic acid, Folic acid (B9)]		sufficient at concentrations lower than those in DMEM/F12	
NC(=O)CC[C@H](N)C(=O)O [glutamine, L-Glutamine]		suitable at lower concentrations	concentration required to maintain similar levels of proliferation [1]: 1 mM
NCC(=O)O [glycine, Glycine]			requirement of the component for hiPSC growth ([1]; no medium change): superfluous
N[C@@H](Cc1c[nH]cn1)C(=O)O [histidine, L-Histidine HCl•H2O]		approximately suitable	
O=c1[nH]cnc2nc[nH]c12 [hypoxanthine, Hypoxanthine]	superfluous		
O.O.O.O.O.O.O.O.O.O=[N+]([O-])[O-].O=[N+]([O-])[O-].O=[N+]([O-])[O-].[Fe+3] [iron nitrate, Iron(III) nitrate nonahydrate (Fe(NO3)3•9H2O)]			toxicity to hiPSCs ([1]; concentration titration, two-passage assay): toxic at high concentrations

Compound	requirement of the component for hiPSC growth [1, 3]	suitable concentration compared with that in DMEM/F12 ([1]; titration, daily medium change)	further results
O.O.O.O.O.O.O.O=S(=O)([O-])[O-].[Fe+2] [iron sulfate, Iron(II) sulfate heptahydrate (FeSO4•7H2O)]			toxicity to hiPSCs [1]: toxic at high concentrations
CC(C)C[C@H](N)C(=O)O [leucine, L-Leucine]		approximately suitable	
CCCCC/C=C\C/C=C\CCCCCCCC(=O)O [linoleic acid, Linoleic acid]	superfluous		
Cl.NCCCC[C@H](N)C(=O)O [lysine, L-Lysine HCl]		approximately suitable	
CSCC[C@H](N)C(=O)O [methionine, L-Methionine]		approximately suitable	
O[C@H]1[C@H](O)[C@@H](O)[C@H](O)[C@@H](O)[C@H]1O [myoinositol, myo-Inositol]		higher concentrations	
NC(=O)c1cccnc1 [nicotinamide, Nicotinamide (B3)]		sufficient at concentrations lower than those in DMEM/F12	
Cl.Cl.NCCCCN [putrescine, Putrescine dihydrochloride]	superfluous		
Cc1ncc(CO)c(CO)c1O [pyridoxine, Pyridoxine hydrochloride (B6)]		sufficient at concentrations lower than those in DMEM/F12	
Cc1cc2nc3c(=O)[nH]c(=O)nc-3n(C[C@H](O)[C@H](O)[C@H](O)CO)c2cc1C [riboflavin, Riboflavin (B2)]		sufficient at concentrations lower than those in DMEM/F12	
O=C([O-])O.[Na+] [sodium bicarbonate, Sodium bicarbonate (NaHCO3)]			concentration most suitable for hiPSC growth ([1]; pH normalized to 7.1): 22.5 mM
O.O=P([O-])(O)O.[Na+] [sodium phosphate monobasic, Sodium phosphate monobasic monohydrate (NaH2PO4•H2O)]	superfluous		concentration at which essential ([1]; no medium change assay): around 2 mM
Cc1ncc(C[n+]2csc(CCO)c2C)c(N)n1 [thiamine, Thiamine hydrochloride (B1)]	superfluous		requirement of the component for hiPSC growth ([1]; normoxic conditions (21% O2)): required
C[C@@H](O)[C@H](N)C(=O)O [threonine, L-Threonine]		approximately suitable	
Cc1cn([C@H]2C[C@H](O)[C@@H](CO)O2)c(=O)[nH]c1=O [thymidine, Thymidine]	superfluous		
N[C@@H](Cc1c[nH]c2ccccc12)C(=O)O [tryptophan, L-Tryptophan]			suitable concentration relative to that in DMEM/F12 ([1]; titration, two-passage assay): ~4 fold
N[C@@H](Cc1ccc(O)cc1)C(=O)O [tyrosine, L-Tyrosine disodium salt hydrate]		approximately suitable	
Iron	essential		

From patent US20260085292A1, “MINIMAL ESSENTIAL MEDIA FOR THE CULTURE OF HUMAN INDUCED PLURIPOTENT STEM CELLS” (Northwestern University, priority 2022, published 2026)
